According to US8063048B2, “Acetylenyl-pyrazolo-pyrimidine derivatives” (Hoffmann-La Roche Inc., priority 2005, dated 2011):

| melting point [°C] | Compound |
| --- | --- |
| 302 | CC(=O)Nc1ncc(C#Cc2cnn3c(C(F)(F)F)cc(-c4ccc(C(F)(F)F)cc4)nc23)s1 [Example 291, N-{5-[7-Trifluoromethyl-5-(4-trifluoromethyl-phenyl)-pyrazolo[1,5-a]pyrimidin-3-ylethynyl]-thiazol-2-yl}-acetamide] |
| 230 to 233 | Cc1cc(-c2ccc(Cl)cc2)nc2c(C#Cc3ccc(S(N)(=O)=O)cc3)cnn12 [Example 292, 4-[5-(4-Chloro-phenyl)-7-methyl-pyrazolo[1,5-a]pyrimidin-3-ylethynyl]-benzenesulfonamide] |
| 228 to 231 | Nc1ccc(C#Cc2cnn3c(C4CC4)cc(-c4ccc(C(F)(F)F)cc4)nc23)cn1 [Example 293, 5-[7-Cyclopropyl-5-(4-trifluoromethyl-phenyl)-pyrazolo[1,5-a]pyrimidin-3-ylethynyl]-pyridin-2-ylamine] |
| 233 to 235 | Nc1ccc(C#Cc2cnn3c(C4CC4)cc(-c4ccc(Cl)cc4)nc23)cn1 [Example 294, 5-[5-(4-Chloro-phenyl)-7-cyclopropyl-pyrazolo[1,5-a]pyrimidin-3-ylethynyl]-pyridin-2-ylamine] |
| 244 to 246 | Cc1cc(-c2ccc(Cl)cc2)nc2c(C#Cc3ccc(N)nc3)cnn12 [Example 295, 5-[5-(4-Chloro-phenyl)-7-methyl-pyrazolo[1,5-a]pyrimidin-3-ylethynyl]-pyridin-2-ylamine] |
| 215 to 217 | Nc1ccc(C#Cc2cnn3c(CO)cc(-c4ccc(Cl)cc4)nc23)cn1 [Example 298, [3-(6-Amino-pyridin-3-ylethynyl)-5-(4-chloro-phenyl)-pyrazolo[1,5-a]pyrimidin-7-yl]-methanol] |
| 118 to 120 | CC(C)(O)c1ccc(C#Cc2cnn3c(CO)cc(-c4ccc(Cl)cc4)nc23)cc1 [Example 299, 2-{4-[5-(4-Chloro-phenyl)-7-hydroxymethyl-pyrazolo[1,5-a]pyrimidin-3-ylethynyl]-phenyl}-propan-2-ol] |
| 148 to 150 | CC(C)(O)c1ccc(C#Cc2cnn3c(C4CC4)cc(-c4ccc(Cl)cc4)nc23)cc1 [Example 300, 2-{4-[5-(4-Chloro-phenyl)-7-cyclopropyl-pyrazolo[1,5-a]pyrimidin-3-ylethynyl]-phenyl}-propan-2-ol] |
| 112 to 115 | Cc1cc(-c2ccc(Cl)cc2)nc2c(C#Cc3ccc(C(C)(C)O)cc3)cnn12 [Example 301, 2-{4-[5-(4-Chloro-phenyl)-7-methyl-pyrazolo[1,5-a]pyrimidin-3-ylethynyl]-phenyl}-propan-2-ol] |
| 205 to 206 | CCc1cc(-c2ccc(Cl)cc2)nc2c(C#Cc3ccc(N)nc3)cnn12 [Example 304, 5-[5-(4-Chloro-phenyl)-7-ethyl-pyrazolo[1,5-a]pyrimidin-3-ylethynyl]-pyridin-2-ylamine] |
| 215 to 217 | CCCc1cc(-c2ccc(Cl)cc2)nc2c(C#Cc3ccc(N)nc3)cnn12 [Example 305, 5-[5-(4-Chloro-phenyl)-7-propyl-pyrazolo[1,5-a]pyrimidin-3-ylethynyl]-pyridin-2-ylamine] |
| 214 to 216 | CNC(=O)c1ccc(C#Cc2cnn3c(C4CC4)cc(-c4ccc(Cl)cc4)nc23)cc1 [Example 306, 4-[5-(4-Chloro-phenyl)-7-cyclopropyl-pyrazolo[1,5-a]pyrimidin-3-ylethynyl]-N-methyl-benzamide] |
| 253 to 255 | CC(C)(C)c1cc(-c2ccc(Cl)cc2)nc2c(C#Cc3ccc(S(N)(=O)=O)s3)cnn12 [Example 307, 5-[7-tert.-Butyl-5-(4-chloro-phenyl)-pyrazolo[1,5-a]pyrimidin-3-ylethynyl]-thiophene-2-sulfonic acid amide] |
| 148 to 152 | Cc1cc(-c2ccc(C(F)(F)F)cc2)nc2c(C#Cc3ccc(S(=O)(=O)NC(CO)CO)s3)cnn12 [Example 308, 5-[7-Methyl-5-(4-trifluoromethyl-phenyl)-pyrazolo[1,5-a]pyrimidin-3-ylethynyl]-thiophene-2-sulfonic acid (2-hydroxy-1-hydroxymethyl-ethyl)-amide] |
